Measured values reported in BigSolDB 2.1.

Cc1c(C(=O)c2c[nH]n(C)c2=O)ccc(S(C)(=O)=O)c1C1=NOCC1
solubility (mole fraction)
Details	283.15 K	288.15 K	293.15 K	298.15 K	303.15 K	308.15 K	313.15 K	318.15 K	323.15 K
in THF	0.00274	0.0031	0.00351	0.00397	0.00449	0.00509	0.00576	0.00652	0.00738
in acetone	0.00112	0.0013	0.00151	0.00176	0.00204	0.00236	0.00274	0.00318	0.0037
in acetonitrile	0.000648	0.000778	0.000934	0.00112	0.00134	0.00161	0.00194	0.00232	0.00279
in ethanol	6.16e-05	8.08e-05	0.000106	0.000139	0.000182	0.000239	0.000314	0.000412	0.000541
in ethyl acetate	0.000521	0.000624	0.000747	0.000894	0.00107	0.00128	0.00153	0.00183	0.0022
in isobutanol	4.16e-05	5.6e-05	7.53e-05	0.000101	0.000137	0.000184	0.000247	0.000333	0.000449
in isobutyl acetate	0.000421	0.000481	0.000549	0.000627	0.000716	0.000818	0.000934	0.00107	0.00122
in isopropanol	3.8e-05	5.11e-05	6.87e-05	9.23e-05	0.000124	0.000167	0.000224	0.000302	0.000405
in isopropyl acetate	0.000297	0.000353	0.00042	0.000499	0.000594	0.000706	0.000839	0.000997	0.00119
in methanol	0.000139	0.000173	0.000215	0.000267	0.000333	0.000414	0.000516	0.000642	0.000799
in methyl acetate	0.000989	0.00116	0.00135	0.00157	0.00184	0.00215	0.00251	0.00293	0.00342
in n-butanol	6.22e-05	8.09e-05	0.000105	0.000137	0.000178	0.000232	0.000301	0.000392	0.00051
in n-butyl acetate	0.000355	0.000419	0.000495	0.000584	0.00069	0.000815	0.000962	0.00114	0.00134
in n-propanol	5.61e-05	7.35e-05	9.63e-05	0.000126	0.000165	0.000217	0.000284	0.000372	0.000488
in n-propyl acetate	0.000415	0.000496	0.000594	0.00071	0.000849	0.00101	0.00121	0.00145	0.00173
in toluene	0.000256	0.0003	0.00035	0.00041	0.000479	0.00056	0.000655	0.000766	0.000895
